Structures are written as SMILES. A value given as a limit tells only on which side of the number the result lay.

human fatty acid synthase FASN, sequence (P49327 whole entry): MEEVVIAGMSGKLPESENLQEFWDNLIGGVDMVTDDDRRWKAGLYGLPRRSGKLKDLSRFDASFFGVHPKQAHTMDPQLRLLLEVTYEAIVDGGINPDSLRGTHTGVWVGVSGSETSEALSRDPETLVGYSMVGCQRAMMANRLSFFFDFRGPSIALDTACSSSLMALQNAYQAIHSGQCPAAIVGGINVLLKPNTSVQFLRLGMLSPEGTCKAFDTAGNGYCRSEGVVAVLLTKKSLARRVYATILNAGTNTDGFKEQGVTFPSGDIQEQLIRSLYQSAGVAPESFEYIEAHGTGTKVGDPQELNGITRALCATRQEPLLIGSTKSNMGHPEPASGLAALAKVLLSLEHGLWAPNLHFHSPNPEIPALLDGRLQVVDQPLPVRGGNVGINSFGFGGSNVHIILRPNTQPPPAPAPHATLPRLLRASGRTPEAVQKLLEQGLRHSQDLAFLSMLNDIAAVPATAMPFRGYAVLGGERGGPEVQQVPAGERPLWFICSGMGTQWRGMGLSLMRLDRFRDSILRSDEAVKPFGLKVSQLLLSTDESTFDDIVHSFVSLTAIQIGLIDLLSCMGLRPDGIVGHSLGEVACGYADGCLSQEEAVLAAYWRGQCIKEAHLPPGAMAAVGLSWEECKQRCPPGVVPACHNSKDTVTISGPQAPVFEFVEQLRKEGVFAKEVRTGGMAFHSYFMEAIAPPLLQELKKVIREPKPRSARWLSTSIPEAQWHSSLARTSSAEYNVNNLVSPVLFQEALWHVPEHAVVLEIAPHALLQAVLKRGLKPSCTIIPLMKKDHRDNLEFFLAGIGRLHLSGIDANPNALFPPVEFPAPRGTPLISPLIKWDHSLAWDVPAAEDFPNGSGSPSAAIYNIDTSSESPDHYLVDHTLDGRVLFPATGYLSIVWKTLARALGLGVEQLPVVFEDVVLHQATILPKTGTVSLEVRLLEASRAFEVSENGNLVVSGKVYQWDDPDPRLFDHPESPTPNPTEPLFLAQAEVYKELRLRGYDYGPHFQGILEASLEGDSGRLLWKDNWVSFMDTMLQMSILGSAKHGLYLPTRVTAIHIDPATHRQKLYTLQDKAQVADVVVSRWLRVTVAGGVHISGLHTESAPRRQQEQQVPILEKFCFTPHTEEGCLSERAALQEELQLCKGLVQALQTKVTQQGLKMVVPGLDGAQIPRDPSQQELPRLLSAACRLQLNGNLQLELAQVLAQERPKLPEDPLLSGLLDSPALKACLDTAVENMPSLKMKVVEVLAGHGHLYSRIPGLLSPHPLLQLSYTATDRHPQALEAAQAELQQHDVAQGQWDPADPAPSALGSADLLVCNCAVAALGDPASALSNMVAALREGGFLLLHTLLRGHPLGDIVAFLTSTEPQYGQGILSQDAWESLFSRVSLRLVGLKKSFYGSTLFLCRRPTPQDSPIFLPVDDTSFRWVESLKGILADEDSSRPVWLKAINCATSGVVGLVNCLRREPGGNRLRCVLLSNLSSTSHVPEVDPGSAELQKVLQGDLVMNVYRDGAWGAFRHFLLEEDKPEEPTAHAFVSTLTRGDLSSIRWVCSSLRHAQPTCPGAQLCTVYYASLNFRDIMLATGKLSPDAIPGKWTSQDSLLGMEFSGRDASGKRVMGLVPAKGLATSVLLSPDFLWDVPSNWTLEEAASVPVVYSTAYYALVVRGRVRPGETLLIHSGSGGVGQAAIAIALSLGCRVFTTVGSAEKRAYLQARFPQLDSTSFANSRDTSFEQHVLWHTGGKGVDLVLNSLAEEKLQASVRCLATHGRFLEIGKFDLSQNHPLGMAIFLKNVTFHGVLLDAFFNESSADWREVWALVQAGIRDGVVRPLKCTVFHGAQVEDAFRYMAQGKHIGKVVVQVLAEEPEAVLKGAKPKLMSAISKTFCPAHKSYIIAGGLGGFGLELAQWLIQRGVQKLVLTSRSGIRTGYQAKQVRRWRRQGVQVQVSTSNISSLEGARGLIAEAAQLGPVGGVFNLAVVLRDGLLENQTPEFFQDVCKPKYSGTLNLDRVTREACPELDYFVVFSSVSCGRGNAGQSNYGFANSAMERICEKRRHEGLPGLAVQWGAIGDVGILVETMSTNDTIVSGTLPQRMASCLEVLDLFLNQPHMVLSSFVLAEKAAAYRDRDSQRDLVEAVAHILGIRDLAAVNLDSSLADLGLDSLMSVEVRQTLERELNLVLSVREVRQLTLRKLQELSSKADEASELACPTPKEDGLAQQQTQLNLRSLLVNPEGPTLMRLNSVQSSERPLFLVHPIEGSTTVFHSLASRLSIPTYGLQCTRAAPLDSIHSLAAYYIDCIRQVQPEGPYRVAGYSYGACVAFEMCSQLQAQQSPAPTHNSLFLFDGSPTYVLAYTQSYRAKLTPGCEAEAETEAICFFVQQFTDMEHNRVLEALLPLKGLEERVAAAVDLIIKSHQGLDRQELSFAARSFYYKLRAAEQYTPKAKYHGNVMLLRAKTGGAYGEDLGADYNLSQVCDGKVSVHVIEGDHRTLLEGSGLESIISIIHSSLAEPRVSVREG

This test concerns the target human fatty acid synthase FASN (Homo sapiens (Human), UniProt P49327). The test is described as follows: Biochemical activity testing of human fatty acid synthase FASN (NADPH fluorescence intensity enzyme assay). The conditions noted are these: human recombinant full-length fatty acid synthase. A digest of the protocol: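 In-house Sf9-expressed full-length enzyme (3 μL of 40 nM) in 50 mM potassium phosphate pH 7.0 with glutathione, BSA and Tween-20, plus NADPH (2 μL of 200 μM), preincubated ≥15 min with compound (10 concentrations from 30 μM final, 1% DMSO). Acetyl-CoA/malonyl-CoA added; NADPH fluorescence (ex 340/em 460 nm) read before and after 30 min at room temperature, difference used for IC50.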
The term IC50 denotes the concentration at which inhibition is half-maximal. `CC(=O)NCCC(=O)N[C@H]1CC[C@@H](N(C)C(=O)c2ccc(-c3nc4ccccc4o3)cc2)C1` [Compound A38, N-[(1R,3S)-3-(3-acetylamino-propionylamino)-cyclopentyl]-4-benzoxazol-2-yl-N-methyl-benzamide]: the IC50 is 0.3 to 3 µM.
`CN(C(=O)c1ccc(-c2nc3ccccc3o2)cc1)[C@@H]1CC[C@H](NC(=O)[C@H]2CCCO2)C1` [Compound A40, (R)-tetrahydro-furan-2-carboxylic acid {(1S,3R)-3-[(4-benzoxazol-2-yl-benzoyl)-methyl-amino]-cyclopentyl}-amide]: the IC50 was less than 0.3 µM.
Consider `CN(C(=O)c1ccc(-c2nc3ccccc3o2)cc1)[C@@H]1CC[C@H](NC(=O)C[C@@H]2CCC(=O)N2)C1` [Compound A45, 4-benzoxazol-2-yl-N-methyl-N-{(1R,3S)-3-[2-((S)-5-oxo-pyrrolidin-2-yl)-acetylamino]-cyclopentyl}-benzamide], for which the IC50 was 3 to 50 µM.
To `CCC(=O)N[C@H]1CC[C@@H](N(C)C(=O)c2ccc(-c3ccncc3)cc2)C1` [Compound A4, N-methyl-N-((1R,3S)-3-propionylamino-cyclopentyl)-4-pyridin-4-yl-benzamide] belongs less than 0.3 µM.
To `CCC(=O)N[C@H]1CC[C@@H](N(C)C(=O)c2ccc(-c3ccc(OC(F)F)cc3)cc2)C1` [Compound A85, 4′-difluoromethoxy-biphenyl-4-carboxylic acid methyl-((1R,3S)-3-propionylamino-cyclopentyl)-amide] belongs less than 0.3 µM; to `CCC(=O)N[C@H]1CC[C@@H](N(C)C(=O)c2ccc(-c3ccc(OC(F)(F)F)cc3)cc2)C1` [Compound A62, 4′-trifluoromethoxy-biphenyl-4-carboxylic acid methyl-((1R,3S)-3-propionylamino-cyclopentyl)-amide], 0.3 to 3 µM.
The figure for `CCC(=O)N[C@H]1CC[C@@H](N(C)C(=O)c2cnc(-c3ccc4[nH]ccc4c3F)c(F)c2)C1` [Compound A143, 5-fluoro-6-(4-fluoro-1H-indol-5-yl)-N-methyl-N-((1R,3S)-3-propionylamino-cyclopentyl)-nicotinamide] is less than 0.3 µM; for `CCC(=O)N[C@H]1CC[C@@H](N(C)C(=O)c2ccc(-c3ccc4[nH]cc(CN)c4c3)cc2)C1` [Compound A130, 4-(3-aminomethyl-1H-indol-5-yl)-N-methyl-N-((1R,3S)-3-propionylamino-cyclopentyl)-benzamide] it is less than 0.3 µM; for `CCC(=O)N[C@H]1CC[C@@H](N(C)C(=O)c2ccc(-c3cc(C)c4[nH]ncc4c3)cn2)C1` [Compound A104, 5-(7-methyl-1H-indazol-5-yl)-pyridine-2-carboxylic acid methyl-((1R,3S)-3-propionylamino-cyclopentyl)-amide] it is less than 0.3 µM.
On to `CCC(=O)N[C@H]1CC[C@@H](N(C)C(=O)c2ccc(-c3ccc(OC(F)(F)F)c(F)c3)cc2)C1` [Compound A98, 3′-fluoro-4′-trifluoromethoxy-biphenyl-4-carboxylic acid methyl-((1R,3S)-3-propionylamino-cyclopentyl)-amide], for which the IC50 was less than 0.3 µM.
To `CCC(=O)N[C@H]1CC[C@@H](N(C)C(=O)c2ccc(-c3ccc(OC)cc3C)cc2)C1` [Compound A65, 4′-methoxy-2′-methyl-biphenyl-4-carboxylic acid methyl-((1R,3S)-3-propionylamino-cyclopentyl)-amide] belongs less than 0.3 µM.
To `CCC(=O)N[C@H]1CC[C@@H](N(C)C(=O)c2ccc(-c3ccc4[nH]ccc4c3F)nn2)C1` [Compound A137, 6-(4-fluoro-1H-indol-5-yl)-pyridazine-3-carboxylic acid methyl-((1R,3S)-3-propionylamino-cyclopentyl)-amide] belongs less than 0.3 µM; to `CCC(=O)N[C@H]1CC[C@@H](N(C)C(=O)c2ccc(-c3ccccc3)cc2)C1` [Compound A8, biphenyl-4-carboxylic acid methyl-((1R,3S)-3-propionylamino-cyclopentyl)-amide], less than 0.3 µM; to `CCC(=O)N[C@H]1CC[C@@H](N(C)C(=O)c2ccc(-c3ccc4ncsc4c3)cc2)C1` [Compound A59, 4-benzothiazol-6-yl-N-methyl-N-((1R,3S)-3-propionylamino-cyclopentyl)-benzamide], less than 0.3 µM.
To `CN(C(=O)c1ccc(-c2nc3ccccc3o2)cc1)[C@@H]1CC[C@H](NC(=O)c2ccccc2)C1` [Compound A20, 4-benzoxazol-2-yl-N-((1R,3S)-3-benzoylamino-cyclopentyl)-N-methyl-benzamide] belongs 0.3 to 3 µM; to `CCC(=O)N[C@H]1CC[C@@H](N(C)C(=O)c2ccc(-c3ccc4[nH]ccc4c3)nc2)C1` [Compound A117, 6-(1H-indol-5-yl)-N-methyl-N-((1R,3S)-3-propionylamino-cyclopentyl)-nicotinamide], less than 0.3 µM.
With `CCC(=O)N[C@H]1CC[C@@H](N(C)C(=O)c2ccc(-c3ccc4c(ccn4C)c3)cc2F)C1` [Compound A111, 2-fluoro-N-methyl-4-(1-methyl-1H-indol-5-yl)-N-((1R,3S)-3-propionylamino-cyclopentyl)-benzamide], the IC50 was less than 0.3 µM.
The figure for `CN(C(=O)c1ccc(-c2nc3ccccc3o2)cc1)[C@@H]1CC[C@H](NC(=O)C(F)(F)C(F)(F)F)C1` [Compound A25, 4-benzoxazol-2-yl-N-methyl-N-[(1R,3S)-3-(2,2,3,3,3-pentafluoro-propionylamino)-cyclopentyl]-benzamide] is 0.3 to 3 µM; for `CCC(=O)N[C@H]1CC[C@@H](N(C)C(=O)c2ccc(-c3ccc4[nH]ccc4c3)cc2F)C1` [Compound A106, 2-fluoro-4-(1H-indol-5-yl)-N-methyl-N-((1R,3S)-3-propionylamino-cyclopentyl)-benzamide] it is less than 0.3 µM.
The figure for `CN(C(=O)c1ccc(-c2nc3ccccc3o2)cc1)[C@@H]1CC[C@H](NC(=O)[C@@H]2CCCO2)C1` [Compound A41, (S)-tetrahydro-furan-2-carboxylic acid {(1S,3R)-3-[(4-benzoxazol-2-yl-benzoyl)-methyl-amino]-cyclopentyl}-amide] is less than 0.3 µM; for `CCC(=O)N[C@H]1CC[C@@H](N(C)C(=O)c2ccc(-c3ccc4cnn(C)c4c3)cc2)C1` [Compound A74, N-methyl-4-(1-methyl-1H-indazol-6-yl)-N-((1R,3S)-3-propionylamino-cyclopentyl)-benzamide] it is less than 0.3 µM; for `CCC(=O)N[C@H]1CC[C@@H](N(C)C(=O)c2ccc(-c3ccc(OC)cc3OC)cc2)C1` [Compound A88, 2′,4′-dimethoxy-biphenyl-4-carboxylic acid methyl-((1R,3S)-3-propionylamino-cyclopentyl)-amide] it is less than 0.3 µM.
On to `CCC(=O)N[C@H]1CC[C@@H](N(C)C(=O)c2ncc(-c3ccc4[nH]ccc4c3)cn2)C1` [Compound A131, 5-(1H-indol-5-yl)-pyrimidine-2-carboxylic acid methyl-((1R,3S)-3-propionylamino-cyclopentyl)-amide], for which the IC50 is less than 0.3 µM.
To `CO[C@H](C)C(=O)N[C@H]1CC[C@@H](N(C)C(=O)c2ccc(-c3nc4ccccc4o3)cc2)C1` [Compound A32, 4-benzoxazol-2-yl-N-[(1R,3S)-3-((R)-2-methoxy-propionylamino)-cyclopentyl]-N-methyl-benzamide] belongs 0.3 to 3 µM; to `CCC(=O)N[C@H]1CC[C@@H](N(C)C(=O)c2cnc(-c3ccc4[nH]ccc4c3)c(F)c2)C1` [Compound A140, 5-fluoro-6-(1H-indol-5-yl)-N-methyl-N-((1R,3S)-3-propionylamino-cyclopentyl)-nicotinamide], less than 0.3 µM; to `CCC(=O)N[C@H]1CC[C@@H](N(C)C(=O)c2ccc(-c3ccc(F)cc3F)cc2)C1` [Compound A83, 2′,4′-difluoro-biphenyl-4-carboxylic acid methyl-((1R,3S)-3-propionylamino-cyclopentyl)-amide], less than 0.3 µM.
The figure for `CCC(=O)N[C@H]1CC[C@@H](N(C)C(=O)c2ccc(-c3cc(F)c4[nH]cc(C(N)=O)c4c3)c(F)c2)C1` [Compound A172, 7-fluoro-5-{2-fluoro-4-[methyl-((1R,3S)-3-propionylamino-cyclopentyl)-carbamoyl]-phenyl}-1H-indole-3-carboxylic acid amide] is 0.3 to 3 µM.
The figure for `CC(=O)N[C@H](C(=O)N[C@H]1CC[C@@H](N(C)C(=O)c2ccc(-c3nc4ccccc4o3)cc2)C1)C(C)C` [Compound A43, N-[(1R,3S)-3-((S)-2-acetylamino-3-methyl-butyrylamino)-cyclopentyl]-4-benzoxazol-2-yl-N-methyl-benzamide] is 0.3 to 3 µM.
For `CCC(=O)N[C@H]1CC[C@@H](N(C)C(=O)c2ccc(-c3ccc4c(c3)OCCO4)cc2)C1` [Compound A87, 4-(2,3-dihydro-benzo[1,4]dioxin-6-yl)-N-methyl-N-((1R,3S)-3-propionylamino-cyclopentyl)-benzamide], the IC50 is less than 0.3 µM.
To `CCC(=O)N[C@H]1CC[C@@H](N(C)C(=O)c2ccc(-c3ccc(C(=O)O)c(C)c3)cc2)C1` [Compound A52, 3-methyl-4′-[methyl-((1R,3S)-3-propionylamino-cyclopentyl)-carbamoyl]-biphenyl-4-carboxylic acid] belongs less than 0.3 µM; to `CCC(=O)N[C@H]1CC[C@@H](N(C)C(=O)c2ccc(-c3cc(F)c4[nH]ccc4c3)cc2)C1` [Compound A121, 4-(7-fluoro-1H-indol-5-yl)-N-methyl-N-((1R,3S)-3-propionylamino-cyclopentyl)-benzamide], less than 0.3 µM; to `CCC(=O)N[C@H]1CC[C@@H](N(C)C(=O)c2ccc(-c3ccc(C(=O)NC)cc3)cc2)C1` [Compound A78, biphenyl-4,4′-dicarboxylic acid 4′-methylamide 4-[methyl-((1R,3S)-3-propionylamino-cyclopentyl)-amide]], less than 0.3 µM.

For the origin of these results see patent publication US9670142B2, “1,3-diaminocyclopentane carboxamide derivatives” (Merck Patent GmbH, priority 2013, dated 2017).
